Data set [1] deals with Rattus norvegicus. Kind of data set: Toxicity in glucocorticoid-induced Wistar rat osteoporosis model assessed as triglycerides level at 30 mg/kg/day, po administered six times a week for 3 months (reference value: 1.13 +/- 0.69 mmol/L). It counts as organism-based. Details: route oral. The settings on record: in vivo.
Data set [2] concerns Rattus norvegicus. As to the kind of experiment: Toxicity in glucocorticoid-induced Wistar rat osteoporosis model assessed as white blood cells at 30 mg/kg/day, po administered six times a week for 3 months (reference value: 6.28 +/- 2.78 x 10^9/L). It counts as organism-based. More on the design: route oral. The following applies: in vivo.
Data set [3] has as its system Rattus norvegicus. Kind of data set: Toxicity in glucocorticoid-induced Wistar rat osteoporosis model assessed as effect on creatinine level at 30 mg/kg/day, po administered six times a week for 3 months. It counts as organism-based. Details: route oral. The following applies: in vivo.
The test system of data set [4] is Rattus norvegicus. Kind of data set: Toxicity in glucocorticoid-induced Wistar rat osteoporosis model assessed as effect on mean corpuscular hemoglobin concentration at 30 mg/kg/day, po administered six times a week for 3 months. It counts as organism-based. More on the design: route oral. The following applies: in vivo.
The subject of data set [5] is Rattus norvegicus. As to the kind of experiment: Antiosteoporotic activity in glucocorticoid-induced Wistar rat osteoporosis model appearance of turbulent and sparse rarefection of trabecula at 30 mg/kg/day, po administered six times a week for 3 months by toluidine blue staining-based light microscopic analysis. It counts as functional, organism-based.
Data set [6] relates to Rattus norvegicus. Kind of data set: Antiosteoporotic activity in glucocorticoid-induced Wistar rat osteoporosis model assessed as trabecula formation surface at 30 mg/kg/day, po administered six times a week for 3 months by fluorescence assay (reference value: 7.82 +/- 2.46%). It counts as functional.
A short description of data set [7]: Upregulation of BMP-2 expression in mouse MC3T3-E1 cells at 4 uM after 24 hrs by luciferase reporter gene assay relative to control. The data set is classed as functional, cell-based. For orientation: In a reporter assay the amount or activity of a reporter protein is the signal.
The subject of data set [8] is Rattus norvegicus. As to the kind of experiment: Toxicity in glucocorticoid-induced Wistar rat osteoporosis model assessed as effect on red blood cell specific volume at 30 mg/kg/day, po administered six times a week for 3 months. Details: route oral. The following applies: in vivo. The data set is classed as organism-based.
In data set [9] the test system is Rattus norvegicus. Kind of data set: Toxicity in glucocorticoid-induced Wistar rat osteoporosis model assessed as neutrophilic granulocytes level at 30 mg/kg/day, po administered six times a week for 3 months (reference value: 31.95 +/- 8.33%). The data set is classed as organism-based. More on the design: route oral. The settings on record: in vivo.
For data set [10], the system named is Rattus norvegicus. Kind of data set: Antiosteoporotic activity in glucocorticoid-induced Wistar rat osteoporosis model assessed as trabecula resorption surface at 30 mg/kg/day, po administered six times a week for 3 months by fluorescence assay (reference value: 7.22 +/- 2.04%). It counts as functional.
Data set [11] has as its system Rattus norvegicus. As to the kind of experiment: Toxicity in glucocorticoid-induced Wistar rat osteoporosis model assessed as effect on hemoglobin at 30 mg/kg/day, po administered six times a week for 3 months. The data set is classed as organism-based. More on the design: route oral. The settings on record: in vivo.
In data set [12] the test system is Rattus norvegicus. As to the kind of experiment: Toxicity in glucocorticoid-induced Wistar rat osteoporosis model assessed as aspartate transaminase level at 30 mg/kg/day, po administered six times a week for 3 months (reference value: 177.55 +/- 116.98 U/L). The data set is classed as organism-based. The following applies: in vivo. Details: route oral.
Data set [13] relates to Rattus norvegicus. Kind of data set: Toxicity in glucocorticoid-induced Wistar rat osteoporosis model assessed as effect on blood urea nitrogen level at 30 mg/kg/day, po administered six times a week for 3 months. The data set is classed as organism-based. More on the design: route oral. The following applies: in vivo.
Data set [14] relates to Rattus norvegicus. Kind of data set: Toxicity in glucocorticoid-induced Wistar rat osteoporosis model assessed as alanine transaminase level at 30 mg/kg/day, po administered six times a week for 3 months (reference value: 43.73 +/- 36.21 U/L). Details: route oral. The settings on record: in vivo. The data set is classed as organism-based.
The test system of data set [15] is Rattus norvegicus. Kind of data set: Toxicity in glucocorticoid-induced Wistar rat osteoporosis model assessed as lymph level at 30 mg/kg/day, po administered six times a week for 3 months (reference value: 50.35 +/- 12.96%). The data set is classed as organism-based. More on the design: route oral. The following applies: in vivo.
The test system of data set [16] is Rattus norvegicus. As to the kind of experiment: Antiosteoporotic activity in glucocorticoid-induced Wistar rat osteoporosis model assessed as mineral apposition rate at 30 mg/kg/day, po administered six times a week for 3 months by fluorescence assay (reference value: 1.06 +/- 0.27 micrometer/day). It counts as functional.
Data set [17] deals with Rattus norvegicus. As to the kind of experiment: Toxicity in glucocorticoid-induced Wistar rat osteoporosis model assessed as effect on red blood cell distribution width at 30 mg/kg/day, po administered six times a week for 3 months. The data set is classed as organism-based. More on the design: route oral. The following applies: in vivo.
Data set [18] has as its system Rattus norvegicus. Kind of data set: Toxicity in glucocorticoid-induced Wistar rat osteoporosis model assessed as effect on mean corpuscular volume at 30 mg/kg/day, po administered six times a week for 3 months. Details: route oral. The settings on record: in vivo. It counts as organism-based.
Data set [19] has as its system Rattus norvegicus. As to the kind of experiment: Toxicity in glucocorticoid-induced Wistar rat osteoporosis model assessed as effect on red blood cells at 30 mg/kg/day, po administered six times a week for 3 months. The data set is classed as organism-based. Details: route oral. The settings on record: in vivo.
The subject of data set [20] is Rattus norvegicus. Kind of data set: Toxicity in glucocorticoid-induced Wistar rat osteoporosis model assessed as effect on total bilirubin level at 30 mg/kg/day, po administered six times a week for 3 months. The data set is classed as organism-based. More on the design: route oral. The following applies: in vivo.
For data set [21], the system named is Rattus norvegicus. As to the kind of experiment: Toxicity in glucocorticoid-induced Wistar rat osteoporosis model assessed as effect on albumin level at 30 mg/kg/day, po administered six times a week for 3 months. It counts as organism-based. Details: route oral. The settings on record: in vivo.
The test system of data set [22] is Rattus norvegicus. Kind of data set: Toxicity in glucocorticoid-induced Wistar rat osteoporosis model assessed as effect on glucose level at 30 mg/kg/day, po administered six times a week for 3 months. It counts as organism-based. More on the design: route oral. The settings on record: in vivo.
In data set [23] the test system is Rattus norvegicus. As to the kind of experiment: Toxicity in glucocorticoid-induced Wistar rat osteoporosis model assessed as effect on total protein level at 30 mg/kg/day, po administered six times a week for 3 months. It counts as organism-based. More on the design: route oral. The settings on record: in vivo.
The subject of data set [24] is Rattus norvegicus. Kind of data set: Antiosteoporotic activity in glucocorticoid-induced Wistar rat osteoporosis model assessed as trabecular bone volume at 30 mg/kg/day, po administered six times a week for 3 months by fluorescence assay (reference value: 33.09 +/- 5.15%). It counts as functional, Trabecula.
The subject of data set [25] is Rattus norvegicus. As to the kind of experiment: Toxicity in glucocorticoid-induced Wistar rat osteoporosis model assessed as effect on platelets at 30 mg/kg/day, po administered six times a week for 3 months. The data set is classed as organism-based. More on the design: route oral. The following applies: in vivo.
Data set [26] deals with Rattus norvegicus. As to the kind of experiment: Antiosteoporotic activity in glucocorticoid-induced Wistar rat osteoporosis model assessed as mineral apposition rate at 2.5 mg/kg/day, im administered twice each week for 8 weeks by fluorescence assay (reference value: 1.06 +/- 0.27 micrometer/day). It counts as functional. The settings on record: route intramuscular.
The test system of data set [27] is Rattus norvegicus. Kind of data set: Antiosteoporotic activity in glucocorticoid-induced Wistar rat osteoporosis model assessed as trabecular bone volume at 2.5 mg/kg/day, im administered twice each week for 8 weeks by fluorescence assay (reference value: 33.09 +/- 5.15%). The data set is classed as functional, Trabecula. The following applies: route intramuscular.

For data set [28], the system named is Rattus norvegicus. Kind of data set: Toxicity in glucocorticoid-induced Wistar rat osteoporosis model assessed as white blood cells at 2.5 mg/kg/day, im administered twice each week for 8 weeks (reference value: 6.28 +/- 2.78 x 10^9/L). It counts as organism-based. The following applies: in vivo, 1344 h. More on the design: route intramuscular.
In data set [29] the test system is Rattus norvegicus. Kind of data set: Antiosteoporotic activity in glucocorticoid-induced Wistar rat osteoporosis model assessed as appearance of turbulent and sparse rarefection of trabecula at 2.5 mg/kg/day, im administered twice each week for 8 weeks by toluidine blue staining-based light microscopic analysis. It counts as functional, organism-based.
In data set [30] the test system is Rattus norvegicus. Kind of data set: Toxicity in glucocorticoid-induced Wistar rat osteoporosis model assessed as lymph level at 2.5 mg/kg/day, im administered twice each week for 8 weeks (reference value: 50.35 +/- 12.96%). More on the design: route intramuscular. The data set is classed as organism-based. The following applies: in vivo, 1344 h.
Data set [31] concerns Rattus norvegicus. Kind of data set: Toxicity in glucocorticoid-induced Wistar rat osteoporosis model assessed as neutrophilic granulocytes level at 2.5 mg/kg/day, im administered twice each week for 8 weeks (reference value: 31.95 +/- 8.33%). It counts as organism-based. Details: route intramuscular. The following applies: in vivo, 1344 h.
Data set [32] relates to Rattus norvegicus. As to the kind of experiment: Antiosteoporotic activity in glucocorticoid-induced Wistar rat osteoporosis model assessed as trabecula resorption surface at 2.5 mg/kg/day, im administered twice each week for 8 weeks by fluorescence assay (reference value: 7.22 +/- 2.04%). The data set is classed as functional. The following applies: route intramuscular.

Data set [33] relates to Rattus norvegicus. Kind of data set: Toxicity in glucocorticoid-induced Wistar rat osteoporosis model assessed as alanine transaminase level at 2.5 mg/kg/day, im administered twice each week for 8 weeks (reference value: 43.73 +/- 36.21 U/L). The data set is classed as organism-based. More on the design: route intramuscular. The settings on record: in vivo, 1344 h.
For data set [34], the system named is Rattus norvegicus. Kind of data set: Toxicity in glucocorticoid-induced Wistar rat osteoporosis model assessed as aspartate transaminase level at 2.5 mg/kg/day, im administered twice each week for 8 weeks (reference value: 177.55 +/- 116.98 U/L). It counts as organism-based. Details: route intramuscular. The following applies: in vivo, 1344 h.
Data set [35] deals with Rattus norvegicus. Kind of data set: Antiosteoporotic activity in glucocorticoid-induced Wistar rat osteoporosis model assessed as trabecula formation surface at 2.5 mg/kg/day, im administered twice each week for 8 weeks by fluorescence assay (reference value: 7.82 +/- 2.46%). The settings on record: route intramuscular. The data set is classed as functional.
Data set [36] concerns Rattus norvegicus. As to the kind of experiment: Toxicity in glucocorticoid-induced Wistar rat osteoporosis model assessed as triglycerides level at 2.5 mg/kg/day, im administered twice each week for 8 weeks (reference value: 1.13 +/- 0.69 mmol/L). It counts as organism-based. Details: route intramuscular. The following applies: in vivo, 1344 h.

Activity calls are given as the source filed them. No cut-off for these calls is given here.

For the compound `CC(=O)c1cc2ccc(C(=O)O)cc2s1`, the Activity with Rattus norvegicus [1] was 0.53 mmol/L; in the data set with Rattus norvegicus [2] it was 3.55 ×10⁹ /L; with Rattus norvegicus [3], “Non-toxic”; with Rattus norvegicus [4] it was “Non-toxic”; with Rattus norvegicus [6] it was 4.61%; in [7], 102%. For the same compound, the Activity result in the data set with Rattus norvegicus [8] was “Non-toxic”; with Rattus norvegicus [9] it was 47.16%; in the data set with Rattus norvegicus [10] it was 10.9%; with Rattus norvegicus [11] it was “Non-toxic”; in the data set on Rattus norvegicus [12], 123.33 U/L; in the data set on Rattus norvegicus [13] it was “Non-toxic”. The Activity in the data set with Rattus norvegicus [14] is listed as 31.17 U/L; in the data set on Rattus norvegicus [15], 35.72%; with Rattus norvegicus [16], 0.97 micrometer/day; with Rattus norvegicus [17], “Non-toxic”; in the data set with Rattus norvegicus [18], “Non-toxic”; in the data set with Rattus norvegicus [19], “Non-toxic”. For the same compound, the Activity entry with Rattus norvegicus [20] was “Non-toxic”; with Rattus norvegicus [21] it was “Non-toxic”; with Rattus norvegicus [22], “Non-toxic”; with Rattus norvegicus [23], “Non-toxic”; in the data set with Rattus norvegicus [24], 20.5%; in the data set with Rattus norvegicus [25] it was “Non-toxic”. For the same compound, the outcome in the data set on Rattus norvegicus [5] was inactive.

On to `C[C@@H]1C[C@H]2[C@@H]3CCC4=CC(=O)C=C[C@]4(C)[C@@]3(F)[C@@H](O)C[C@]2(C)[C@@]1(O)C(=O)CO` [DEXAMETHASONE], for which the Activity was determined as 0.76 micrometer/day with Rattus norvegicus [26]; 18.46% in the data set with Rattus norvegicus [27]; 6.58 ×10⁹ /L in the data set with Rattus norvegicus [28]; 25.77% in the data set on Rattus norvegicus [30]; 53.03% with Rattus norvegicus [31]; 11.8% with Rattus norvegicus [32]. Moreover, the Activity in the data set on Rattus norvegicus [33] is 63.64 U/L; in the data set on Rattus norvegicus [34], 213 U/L; in the data set on Rattus norvegicus [35] it was 4.49%; in the data set with Rattus norvegicus [36] it was 1.63 mmol/L. Moreover, the result in the data set with Rattus norvegicus [29] was inactive.
